Reference: article PMC2972222, “Breast Cancer Stem-Like Cells Are Inhibited by a Non-Toxic Aryl Hydrocarbon Receptor Agonist” (PLoS ONE, 2010)

Experiments:
[1] = target: T1, aryl hydrocarbon receptor (AHR) (Mus musculus, UniProt P30561); test: competition radioligand binding with [3-H]-3-MC on antibody-immobilized AHR
T1 construct: native AHR from mouse liver cytosol, immobilized on plate with anti-AHR antibody
T1 sequence (P30561 10-848): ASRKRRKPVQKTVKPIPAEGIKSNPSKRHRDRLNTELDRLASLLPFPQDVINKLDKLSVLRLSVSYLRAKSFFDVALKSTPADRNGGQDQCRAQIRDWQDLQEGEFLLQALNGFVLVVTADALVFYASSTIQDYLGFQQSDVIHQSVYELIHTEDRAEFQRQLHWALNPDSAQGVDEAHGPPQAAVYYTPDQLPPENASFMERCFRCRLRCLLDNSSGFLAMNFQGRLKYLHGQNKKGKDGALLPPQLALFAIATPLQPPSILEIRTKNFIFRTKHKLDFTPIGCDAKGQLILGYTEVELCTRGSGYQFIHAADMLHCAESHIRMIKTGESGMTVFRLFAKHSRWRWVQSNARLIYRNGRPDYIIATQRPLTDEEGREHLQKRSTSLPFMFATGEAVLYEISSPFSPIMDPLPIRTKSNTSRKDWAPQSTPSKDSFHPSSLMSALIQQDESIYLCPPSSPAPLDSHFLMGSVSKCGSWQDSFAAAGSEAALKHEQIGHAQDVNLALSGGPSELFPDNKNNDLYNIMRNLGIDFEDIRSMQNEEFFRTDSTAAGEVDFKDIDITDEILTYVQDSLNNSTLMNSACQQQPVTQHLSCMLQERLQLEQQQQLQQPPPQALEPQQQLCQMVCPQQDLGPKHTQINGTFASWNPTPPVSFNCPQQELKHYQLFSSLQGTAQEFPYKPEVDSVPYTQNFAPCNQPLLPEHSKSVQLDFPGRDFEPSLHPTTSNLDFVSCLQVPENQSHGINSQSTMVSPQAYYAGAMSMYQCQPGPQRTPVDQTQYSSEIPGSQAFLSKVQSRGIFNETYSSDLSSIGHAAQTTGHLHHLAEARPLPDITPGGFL

[2] = target: T1, aryl hydrocarbon receptor (AHR); test: competition radioligand binding, unlabeled 3-MC versus [3-H]-3-MC on antibody-immobilized AHR
Text: competition radioligand binding, unlabeled 3-MC versus [3-H]-3-MC on antibody-immobilized AHR on aryl hydrocarbon receptor (AHR) | Competition of tranilast or unlabeled 3-MC with [3-H]-3-MC for binding to plate-immobilized AHR from mouse liver cytosol

Ki [1] [µM] | Structure (SMILES) | Ki [2] [µM]
44 | COc1ccc(/C=C/C(=O)Nc2ccccc2C(=O)O)cc1OC [tranilast, N-[3,4-dimethoxycinnamoyl]anthranilic acid] | 
 | Cc1ccc2cc3c(ccc4ccccc43)c3c2c1CC3 [3-methylcholanthrene] | 0.035
